Data published in ChEMBL document CHEMBL1153807, “An inhibitor of CCL2-induced chemotaxis from the fungus Leptoxyphium sp” (J Nat Prod, 2009).
Calls of active or inactive are those of the source. The calls are words filed in the database; no cut-off is given here.

How the values were obtained:
Type in all cases: cell-based
[1] = Cytotoxicity against human monocytes at 100 uM after 24 hrs; details: monocyte
[2] = molecular target: C-C chemokine receptor type 2 (Homo sapiens) (UniProt P41597); experiment: Inhibition of CCR2 in human monocytes assessed as CCL2-induced cell migration at 10 uM after 1.5 hrs by micro-Boyden chamber
[3] = molecular target: C-C chemokine receptor type 2 (Homo sapiens) (UniProt P41597); experiment: Inhibition of CCR2 in human monocytes assessed as CCL2-induced cell migration at 100 uM after 1.5 hrs by micro-Boyden chamber
[4] = molecular target: C-C chemokine receptor type 2 (Homo sapiens) (UniProt P41597); experiment: Inhibition of CCR2 in human monocytes assessed as cell migration at 100 uM after 30 mins

Chain of C-C chemokine receptor type 2 (Homo sapiens) (P41597 whole entry, looked up): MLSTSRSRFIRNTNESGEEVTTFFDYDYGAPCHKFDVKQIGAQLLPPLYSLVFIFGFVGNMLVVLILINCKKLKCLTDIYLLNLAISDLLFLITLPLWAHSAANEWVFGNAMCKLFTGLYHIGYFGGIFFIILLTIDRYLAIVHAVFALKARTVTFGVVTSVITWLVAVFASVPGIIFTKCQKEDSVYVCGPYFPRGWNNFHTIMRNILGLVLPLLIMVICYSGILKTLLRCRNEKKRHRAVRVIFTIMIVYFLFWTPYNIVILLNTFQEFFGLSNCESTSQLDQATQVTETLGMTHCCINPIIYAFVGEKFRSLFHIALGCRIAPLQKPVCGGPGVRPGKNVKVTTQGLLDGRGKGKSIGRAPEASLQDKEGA

inhibition [2]	inhibition [3]	inhibition [4]	Structure (SMILES)	Activity [1]
Active			O=C1N[C@H](Cc2cc(Cl)c(O)c(Cl)c2)C(=O)N2CCC[C@H]12	Non-toxic
	inactive		CC(C)C[C@@H]1C(=O)N[C@@H](Cc2c[nH]c3ccccc23)C(=O)N1C	Non-toxic
			CON1C(=O)C2NC(=O)[C@@]13Oc1cc(O)c(Cl)cc1[C@@H]3SS2	Toxic
	inactive	inactive	O=C1N[C@@H](Cc2ccc(O)cc2)C(=O)N2CCC[C@@H]12	Non-toxic
